Reference: PubChem BioAssay AID2060600 (Molecular Pharmacology Branch, DTP, NCI, 2025)
Several values for one entry are separate records, joined by “and”; a condition that tells them apart may be missing. Equal values may be shown once.

Test system: 996289-038-R-J1-PDC complex spheroid viability
Assay: Anticancer human tumor 996289-038-R-J1-PDC patient-derived colon adenocarcinoma cell line growth inhibition [CLK]
Details: for viability, T/C: stronger effect = lower value
Method in brief: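 Multi-cell-type spheroids combined patient-derived tumor cells with HUVEC endothelial cells and human mesenchymal stem cells. Paired agents were dosed in half-log steps down from about clinical Cmax, or from 10 microM where Cmax was unknown.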

[1] = curve of first compound, second compound 0.0316 µM
[2] = curve of first compound, second compound 0.1 µM
[3] = curve of first compound, second compound 0.316 µM
[4] = curve of first compound, second compound 1 µM
[5] = curve of first compound, second compound 3.16 µM
[6] = curve of first compound, second compound 10 µM
[7] = second compound 0.0316 µM, first compound 0.0316 µM
[8] = second compound 0.0316 µM, first compound 0.1 µM
[9] = second compound 0.0316 µM, first compound 0.316 µM
[10] = second compound 0.0316 µM, first compound 1 µM
[11] = second compound 0.0316 µM, first compound 3.16 µM
[12] = second compound 0.0316 µM, first compound 10 µM
[13] = second compound 0.1 µM, first compound 0.0316 µM
[14] = second compound 0.1 µM, first compound 0.1 µM
[15] = second compound 0.1 µM, first compound 0.316 µM
[16] = second compound 0.1 µM, first compound 1 µM
[17] = second compound 0.1 µM, first compound 3.16 µM
[18] = second compound 0.1 µM, first compound 10 µM
[19] = second compound 0.316 µM, first compound 0.0316 µM
[20] = second compound 0.316 µM, first compound 0.1 µM
[21] = second compound 0.316 µM, first compound 0.316 µM
[22] = second compound 0.316 µM, first compound 1 µM
[23] = second compound 0.316 µM, first compound 3.16 µM
[24] = second compound 0.316 µM, first compound 10 µM
[25] = second compound 1 µM, first compound 0.0316 µM
[26] = second compound 1 µM, first compound 0.1 µM
[27] = second compound 1 µM, first compound 0.316 µM
[28] = second compound 1 µM, first compound 1 µM
[29] = second compound 1 µM, first compound 3.16 µM
[30] = second compound 1 µM, first compound 10 µM
[31] = second compound 3.16 µM, first compound 0.0316 µM
[32] = second compound 3.16 µM, first compound 0.1 µM
[33] = second compound 3.16 µM, first compound 0.316 µM
[34] = second compound 3.16 µM, first compound 1 µM
[35] = second compound 3.16 µM, first compound 3.16 µM
[36] = second compound 3.16 µM, first compound 10 µM
[37] = second compound 10 µM, first compound 0.0316 µM
[38] = second compound 10 µM, first compound 0.1 µM
[39] = second compound 10 µM, first compound 0.316 µM
[40] = second compound 10 µM, first compound 1 µM
[41] = second compound 10 µM, first compound 3.16 µM
[42] = second compound 10 µM, first compound 10 µM
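Further: spheroids exposed to the agents for 7 days before readout.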

CC(CO)NC(=O)c1cc(-c2ccc(Cl)cc2)nn(-c2cnn(C)c2)c1=O (stereo not given) + CN1CCN(c2cc(C(=O)Nc3cc4cc(-c5cnn(C)c5)ccc4cn3)ccn2)CC1
IC50 [1]: > 10000 nM | IC50 [2]: > 10000 nM | IC50 [3]: 8010 nM | IC50 [4]: < 31.6 nM | IC50 [5]: < 31.6 nM | IC50 [6]: < 31.6 nM | viability, T/C [7]: 105% | viability, T/C [8]: 96.2% | viability, T/C [9]: 95.3% | viability, T/C [10]: 107% | viability, T/C [11]: 102% | viability, T/C [12]: 82.3% | viability, T/C [13]: 107% | viability, T/C [14]: 104% | viability, T/C [15]: 89.8% | viability, T/C [16]: 83.9% | viability, T/C [17]: 84.9% | viability, T/C [18]: 66.9% | viability, T/C [19]: 75% | viability, T/C [20]: 70.2% | viability, T/C [21]: 67.3% | viability, T/C [22]: 68.4% | viability, T/C [23]: 69.2% | viability, T/C [24]: 45.5% | viability, T/C [25]: 8.41% | viability, T/C [26]: 6.34% | viability, T/C [27]: 6.26% | viability, T/C [28]: 6.91% | viability, T/C [29]: 6.32% | viability, T/C [30]: 4.74% | viability, T/C [31]: 1.59% | viability, T/C [32]: 0.78% | viability, T/C [33]: 2.09% | viability, T/C [34]: 2.22% | viability, T/C [35]: 0.69% | viability, T/C [36]: 1.38% | viability, T/C [37]: 1.12% | viability, T/C [38]: 0.98% | viability, T/C [39]: 0.62% | viability, T/C [40]: 0.94% | viability, T/C [41]: 0.67% | viability, T/C [42]: 0.38%

CC1(C)CCC(CN2CCN(c3ccc(C(=O)NS(=O)(=O)c4ccc(NCC5CCOCC5)c([N+](=O)[O-])c4)c(Oc4cnc5[nH]ccc5c4)c3)CC2)=C(c2ccc(Cl)cc2)C1 + CN1CCN(c2cc(C(=O)Nc3cc4cc(-c5cnn(C)c5)ccc4cn3)ccn2)CC1
IC50 [1]: 8460 nM | IC50 [2]: 6780 nM | IC50 [3]: 5350 nM | IC50 [4]: < 31.6 nM | IC50 [5]: < 31.6 nM | IC50 [6]: < 31.6 nM | viability, T/C [7]: 107% | viability, T/C [8]: 92.1% | viability, T/C [9]: 99.5% | viability, T/C [10]: 104% | viability, T/C [11]: 111% | viability, T/C [12]: 41% | viability, T/C [13]: 93.1% | viability, T/C [14]: 92.7% | viability, T/C [15]: 91.3% | viability, T/C [16]: 102% | viability, T/C [17]: 92.1% | viability, T/C [18]: 28.4% | viability, T/C [19]: 72.2% | viability, T/C [20]: 70.9% | viability, T/C [21]: 74.3% | viability, T/C [22]: 71.2% | viability, T/C [23]: 80.5% | viability, T/C [24]: 21.6% | viability, T/C [25]: 5.73% | viability, T/C [26]: 6.71% | viability, T/C [27]: 6.34% | viability, T/C [28]: 6.11% | viability, T/C [29]: 7.84% | viability, T/C [30]: 4.96% | viability, T/C [31]: 3.72% | viability, T/C [32]: 2.29% | viability, T/C [33]: 1.42% | viability, T/C [34]: 3.37% | viability, T/C [35]: 1.39% | viability, T/C [36]: 1.49% | viability, T/C [37]: 2.97% | viability, T/C [38]: 0.51% | viability, T/C [39]: 2.24% | viability, T/C [40]: 0.81% | viability, T/C [41]: 0.61% | viability, T/C [42]: 0.62%

NC(=O)C(=Cn1cnc(-c2cc(C(F)(F)F)cc(C(F)(F)F)c2)n1)c1cncnc1
viability, T/C (compound 0.00949 µM): 83% and 87.8% | viability, T/C (compound 0.03 µM): 63% and 63.2% | viability, T/C (compound 0.0949 µM): 49.2% and 52.4% | viability, T/C (compound 0.3 µM): 28.8% and 28.9% | viability, T/C (compound 0.949 µM): 19.9% and 22.7% | viability, T/C (compound 3 µM): 18.5% and 21.2% | IC50 (curve of compound): 74.4 nM and 78.9 nM

Nc1ccn(C2OC(CO)C(O)C2(F)F)c(=O)n1 (stereo not given) + CN1CCN(c2cc(C(=O)Nc3cc4cc(-c5cnn(C)c5)ccc4cn3)ccn2)CC1
IC50 [1]: 851 nM | IC50 [2]: 406 nM | IC50 [3]: 130 nM | IC50 [4]: < 31.6 nM | IC50 [5]: < 31.6 nM | IC50 [6]: < 31.6 nM | viability, T/C [7]: 86.7% | viability, T/C [8]: 62.6% | viability, T/C [9]: 54.5% | viability, T/C [10]: 51.5% | viability, T/C [11]: 49.1% | viability, T/C [12]: 43.4% | viability, T/C [13]: 74.6% | viability, T/C [14]: 56.4% | viability, T/C [15]: 53.2% | viability, T/C [16]: 46.9% | viability, T/C [17]: 41.2% | viability, T/C [18]: 35.8% | viability, T/C [19]: 57.7% | viability, T/C [20]: 52% | viability, T/C [21]: 43.3% | viability, T/C [22]: 39.2% | viability, T/C [23]: 36.2% | viability, T/C [24]: 26% | viability, T/C [25]: 4.69% | viability, T/C [26]: 4.7% | viability, T/C [27]: 3.37% | viability, T/C [28]: 6.26% | viability, T/C [29]: 3.39% | viability, T/C [30]: 3.71% | viability, T/C [31]: 1.41% | viability, T/C [32]: 1.07% | viability, T/C [33]: 1.65% | viability, T/C [34]: 1% | viability, T/C [35]: 1.01% | viability, T/C [36]: 2.06% | viability, T/C [37]: 0.95% | viability, T/C [38]: 1.01% | viability, T/C [39]: 0.41% | viability, T/C [40]: 1.58% | viability, T/C [41]: 0.37% | viability, T/C [42]: 0.35%

COC1C=CCC(C)C(C)S(=O)(=O)NC(=O)c2ccc3c(c2)N(CC2CCC21)CC1(CCCc2cc(Cl)ccc21)CO3 (stereo not given)
viability, T/C (compound 0.0316 µM): 101% and 104% | viability, T/C (compound 0.1 µM): 88.7% and 93.9% | viability, T/C (compound 0.316 µM): 93.5% and 97.9% | viability, T/C (compound 1 µM): 78.9% and 89.3% | viability, T/C (compound 3.16 µM): 64.2% and 59.8% | viability, T/C (compound 10 µM): 33.9% and 39% | IC50 (curve of compound): 5360 nM and 5440 nM
